Reference: PubChem BioAssay (NCI)
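Five concentrations, 48 hours, 96-well plates. GI50 marks 50% less growth. TGI denotes the concentration required for complete inhibition of growth.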

Tests used:
Test in all cases: NCI anticancer screen, dose series, 48 h
[1] = test system: ACHN renal
[2] = test system: CAKI-1 renal
[3] = test system: EKVX NSCLC
[4] = test system: HCT-15 colon
[5] = test system: HOP-92 NSCLC
[6] = test system: MALME-3M melanoma
[7] = test system: OVCAR-4 ovarian
[8] = test system: UO-31 renal
[9] = test system: NCI/ADR-RES ovarian
[10] = test system: MCF7 breast

| SMILES | TGI [1] [µM] | TGI [2] [µM] | TGI [3] [µM] | TGI [4] [µM] | TGI [5] [µM] | TGI [6] [µM] | TGI [7] [µM] | TGI [8] [µM] | GI50 [1] [µM] | GI50 [2] [µM] | GI50 [4] [µM] | GI50 [5] [µM] | GI50 [6] [µM] | GI50 [9] [µM] | TGI [9] [µM] | GI50 [7] [µM] | GI50 [8] [µM] | GI50 [3] [µM] | GI50 [10] [µM] | TGI [10] [µM] |
| --- | --- | --- | --- | --- | --- | --- | --- | --- | --- | --- | --- | --- | --- | --- | --- | --- | --- | --- | --- | --- |
| CC1(c2cccc3ccccc23)OC(=O)c2ccccc21 (configuration not stated) | 70.9 | 51 | > 100 | 63.7 | 36.5 | 53.4 | > 100 | 78.7 | – | – | – | – | – | – | – | – | – | – | – | – |
| CCOc1ccc(-c2nonc2NC(=O)c2cccc(C)c2)cc1OCC | > 100 | > 100 | – | > 100 | 59.1 | > 100 | > 100 | > 100 | > 100 | 74 | > 100 | 21.1 | > 100 | > 100 | > 100 | > 100 | > 100 | – | – | – |
| O=C(CO)CC(=O)C(=O)Nc1ccccc1 | > 100 | – | > 100 | > 100 | > 100 | > 100 | > 100 | > 100 | – | – | – | – | – | – | – | – | – | – | – | – |
| O=C1C(Cl)=C(Nc2cccc(Cl)c2)C(=O)N1Cc1ccccc1Cl | 17.1 | 10.3 | 50.9 | 38.2 | 32.4 | – | 42.4 | 5.01 | 4.36 | 1.68 | 3.96 | 8.28 | – | – | – | 12.4 | 1.47 | 20.2 | 5.18 | 21.2 |
| Fc1ccc2c(c1)c(-c1nc(-c3c[nH]c4ncccc34)cs1)cn2CCCN1CCCCC1 | – | – | – | – | 2.95 | – | 4.01 | 2.64 | – | – | – | 1.47 | – | 1.64 | 3.15 | 1.83 | 1.28 | – | – | – |
| N#C/C(=C/c1ccc[nH]1)P(=O)(O)O | > 100 | > 100 | > 100 | > 100 | > 100 | > 100 | > 100 | > 100 | – | – | – | – | – | – | – | – | – | – | – | – |
| C=C1C(=O)O[C@H]2[C@H]1CC/C(Cn1cc(-c3cc(C(F)(F)F)cc(C(F)(F)F)c3)nn1)=C\CC[C@@]1(C)O[C@@H]21 | 0.325 | – | 2.95 | 0.454 | 1.44 | 2.16 | 1.8 | 1.58 | 0.16 | – | 0.191 | 0.344 | 0.521 | – | – | 0.508 | 0.382 | 1.5 | 0.198 | 1.19 |
| Clc1cc(Cc2cc(Cl)c(Cl)c3c2OCOC3)c2c(c1Cl)COCO2 | > 100 | 49.7 | – | > 100 | 41.8 | > 100 | 43.9 | > 100 | – | – | – | – | – | – | – | – | – | – | – | – |
| N#CC(C(=O)CCC(=O)C(C#N)c1ccccc1)c1ccccc1 (configuration not stated) | > 100 | > 100 | > 100 | > 100 | > 100 | > 100 | > 100 | > 100 | – | – | – | – | – | – | – | – | – | – | – | – |
| CCOc1ccccc1NC(=O)CC1SC(=Nc2ccc([N+](=O)[O-])cc2)NC1=O (configuration not stated) | 46 | – | 72.3 | – | 25.8 | 51.1 | 29.8 | 37.7 | – | – | – | – | – | – | – | – | – | – | – | – |
| COC(=O)/C([Se]c1c(C)cc(C)cc1C)=C(\[Se]c1c(C)cc(C)cc1C)C(=O)OC | > 100 | > 100 | > 100 | > 100 | > 100 | > 100 | > 100 | > 100 | – | – | – | – | – | – | – | – | – | – | – | – |
| O=C1NC(=O)C2C(=O)NC(=O)C1C2(c1ccccc1)c1cc[nH]c1 (configuration not stated) | > 100 | > 100 | > 100 | > 100 | > 100 | > 100 | > 100 | > 100 | – | – | – | – | – | – | – | – | – | – | – | – |
| N#CC(C(=O)/C(=N/N)C(C#N)c1ccccc1)c1ccccc1 (configuration not stated) | > 100 | > 100 | > 100 | > 100 | > 100 | > 100 | > 100 | > 100 | – | – | – | – | – | – | – | – | – | – | – | – |
| O=NNc1ccc(S(=O)(=O)c2ccccc2)cn1 | > 100 | > 100 | > 100 | > 100 | – | > 100 | > 100 | > 100 | – | – | – | – | – | – | > 100 | – | – | – | – | > 100 |
| N/C(=C\c1ccc(OCc2ccccc2)c(OCc2ccccc2)c1[N+](=O)[O-])C(=O)O | > 100 | – | > 100 | – | > 100 | > 100 | – | > 100 | – | – | – | – | – | – | – | – | – | – | – | – |
| Oc1cc(O)c2c(-c3c(O)c(-c4ccc(O)c(O)c4)[o+]c4cc(O)cc(O)c34)c(O)c(-c3ccc(O)c(O)c3)[o+]c2c1 | 66.6 | 95.6 | 86.8 | > 100 | > 100 | 84.6 | > 100 | 78.3 | – | – | – | – | – | – | – | – | – | – | – | – |
| Cc1cc2nc(CCC(=O)O)c(=O)[nH]c2cc1C | > 100 | > 100 | > 100 | > 100 | > 100 | > 100 | > 100 | > 100 | – | – | – | – | – | – | – | – | – | – | – | – |
| O=c1nc2n(-c3ccc(Cl)cc3)c3ccc([N+](=O)[O-])cc3cc-2c(=O)[nH]1 | > 100 | 60.1 | 82.5 | > 100 | – | – | > 100 | 53.6 | 57.4 | 21.5 | 8.84 | – | – | 49.6 | > 100 | 71.5 | 20 | 37.2 | – | – |
| CC(=O)[CH-]C(=O)c1ccccc1.CC(=O)[CH-]C(=O)c1ccccc1.[Eu+3].[OH-].[OH3+] | > 100 | > 100 | > 100 | > 100 | 99.7 | – | > 100 | – | > 100 | > 100 | > 100 | 7.44 | – | – | – | > 100 | – | > 100 | – | – |
| CCC1(c2c(F)c(F)c(N)c(F)c2F)CCC(=O)NC1=O (configuration not stated) | > 100 | > 100 | > 100 | > 100 | > 100 | > 100 | > 100 | > 100 | – | – | – | – | – | – | – | – | – | – | – | – |
| O=[N+]([O-])c1nccn1CC(O)CN1CC1 (configuration not stated) | > 100 | > 100 | > 100 | > 100 | – | > 100 | > 100 | > 100 | – | – | – | – | – | – | – | – | – | – | – | – |
| CN(C)c1ccc([O][Bi]([Cl])[Cl])cc1 | – | > 100 | > 100 | > 100 | – | > 100 | > 100 | > 100 | – | > 100 | > 100 | – | > 100 | – | – | > 100 | > 100 | > 100 | – | – |
